Test results taken from ChEMBL document CHEMBL1201862, “PubChem BioAssay data set” (2004).
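Method: 48-hour compound exposure of cells in 96-well plates, five concentrations, linear interpolation of endpoints. GI50 marks 50% less growth.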 Calls of active or inactive are those of the source. No stated cut-off is given here; in the data, active = GI50 up to about 1.1 µM and inactive = higher.

How the values were obtained:
Assay in all cases: growth of human tumour cells (NCI), 48 h
[1] = system: HOP-92
[2] = system: SNB-19
[3] = system: SN12C
[4] = system: IGROV-1
[5] = system: SW-620
[6] = system: UACC-257
[7] = system: A549
[8] = system: HCT-15
[9] = system: Malme-3M
[10] = system: SK-MEL-28
[11] = system: LXFL 529
[12] = system: HT-29
[13] = system: DMS-114
[14] = system: HOP-62
[15] = system: NCI-H226
[16] = system: LOX IMVI
[17] = system: OVCAR-4
[18] = system: KM-20L2
[19] = system: ACHN
[20] = system: CAKI-1
[21] = system: HL-60
[22] = system: A498
[23] = system: K562
[24] = system: HCT-116
[25] = system: M19-MEL
[26] = system: DLD-1
[27] = system: CCRF-CEM
[28] = system: SF-295
[29] = system: SF-539
[30] = system: UO-31
[31] = system: OVCAR-8
[32] = system: TK-10
[33] = system: NCI-H23
[34] = system: U-251
[35] = system: COLO 205
[36] = system: MOLT-4
[37] = system: SK-OV-3
[38] = system: DMS-273
[39] = system: NCI-H460
[40] = system: HCC 2998
[41] = system: KM12
[42] = system: EKVX
[43] = system: OVCAR-5
[44] = system: UACC-62
[45] = system: 786-0
[46] = system: SK-MEL-5
[47] = system: SNB-78
[48] = system: RXF 393
[49] = system: RPMI-8226
[50] = system: SNB-75
[51] = system: NCI-H522
[52] = system: SK-MEL-2
[53] = system: M14
[54] = system: SF-268
[55] = system: OVCAR-3
[56] = system: SR
[57] = system: PC-3
[58] = system: Hs-578T
[59] = system: NCI/ADR-RES
[60] = system: BT-549
[61] = system: MDA-MB-435
[62] = system: DU-145
[63] = system: T47D
[64] = system: MDA-MB-231
[65] = system: MCF7
[66] = system: MDA-N
[67] = system: HOP-18

CCNc1c(C(=O)N(CC)CC)c(=O)[nH]c2ncccc12
GI50 [1]: > 100 µM (inactive)
GI50 [2]: > 100 µM (inactive)
GI50 [3]: > 100 µM (inactive)
GI50 [4]: > 100 µM (inactive)
GI50 [5]: > 100 µM (inactive)
GI50 [6]: > 100 µM (inactive)
GI50 [7]: > 100 µM (inactive)
GI50 [8]: > 100 µM
GI50 [9]: > 100 µM (inactive)
GI50 [10]: > 100 µM (inactive)
GI50 [11]: > 100 µM (inactive)
GI50 [12]: > 100 µM (inactive)
GI50 [13]: > 100 µM (inactive)
GI50 [14]: > 100 µM (inactive)
GI50 [15]: > 100 µM (inactive)
GI50 [16]: > 100 µM (inactive)
GI50 [17]: > 100 µM (inactive)
GI50 [18]: > 100 µM (inactive)
GI50 [19]: > 100 µM (inactive)
GI50 [20]: > 100 µM (inactive)
GI50 [21]: > 100 µM (inactive)
GI50 [22]: > 100 µM (inactive)
GI50 [23]: > 100 µM (inactive)
GI50 [24]: > 100 µM (inactive)
GI50 [25]: > 100 µM (inactive)
GI50 [26]: > 100 µM (inactive)
GI50 [27]: > 100 µM (inactive)
GI50 [28]: > 100 µM (inactive)
GI50 [29]: > 100 µM (inactive)
GI50 [30]: > 100 µM (inactive)
GI50 [31]: > 100 µM (inactive)
GI50 [32]: > 100 µM (inactive)
GI50 [33]: > 100 µM (inactive)
GI50 [34]: > 100 µM (inactive)
GI50 [35]: > 100 µM (inactive)
GI50 [36]: > 100 µM (inactive)
GI50 [37]: > 100 µM (inactive)
GI50 [38]: > 100 µM (inactive)
GI50 [39]: > 100 µM (inactive)
GI50 [40]: > 100 µM (inactive)
GI50 [41]: > 100 µM (inactive)
GI50 [42]: > 100 µM (inactive)
GI50 [43]: > 100 µM (inactive)
GI50 [44]: > 100 µM (inactive)
GI50 [45]: > 100 µM (inactive)
GI50 [46]: > 100 µM (inactive)
GI50 [47]: > 100 µM (inactive)
GI50 [48]: > 100 µM (inactive)
GI50 [49]: > 100 µM (inactive)
GI50 [50]: > 100 µM (inactive)
GI50 [51]: > 100 µM (inactive)
GI50 [52]: > 100 µM (inactive)
GI50 [53]: > 100 µM (inactive)
GI50 [54]: > 100 µM (inactive)
GI50 [55]: > 100 µM (inactive)

O=C(/C=C1\NC(=O)c2ccccc2N1)c1ccncc1
GI50 [2]: > 100 µM (inactive)
GI50 [3]: > 100 µM (inactive)
GI50 [4]: > 100 µM (inactive)
GI50 [5]: > 100 µM (inactive)
GI50 [6]: > 100 µM (inactive)
GI50 [7]: > 100 µM (inactive)
GI50 [8]: > 100 µM
GI50 [9]: > 100 µM (inactive)
GI50 [10]: > 100 µM (inactive)
GI50 [12]: > 100 µM (inactive)
GI50 [13]: > 100 µM (inactive)
GI50 [14]: > 100 µM (inactive)
GI50 [15]: > 100 µM (inactive)
GI50 [17]: > 100 µM (inactive)
GI50 [19]: > 100 µM (inactive)
GI50 [20]: > 100 µM (inactive)
GI50 [21]: > 100 µM (inactive)
GI50 [22]: > 100 µM (inactive)
GI50 [23]: > 100 µM (inactive)
GI50 [24]: > 100 µM (inactive)
GI50 [25]: > 100 µM (inactive)
GI50 [26]: > 100 µM (inactive)
GI50 [27]: > 100 µM (inactive)
GI50 [28]: > 100 µM (inactive)
GI50 [30]: > 100 µM (inactive)
GI50 [31]: > 100 µM (inactive)
GI50 [56]: > 100 µM (inactive)
GI50 [32]: > 100 µM (inactive)
GI50 [33]: > 100 µM (inactive)
GI50 [34]: > 100 µM (inactive)
GI50 [35]: > 100 µM (inactive)
GI50 [36]: > 100 µM (inactive)
GI50 [37]: > 100 µM (inactive)
GI50 [39]: > 100 µM (inactive)
GI50 [40]: > 100 µM (inactive)
GI50 [42]: > 100 µM (inactive)
GI50 [43]: > 100 µM (inactive)
GI50 [44]: > 100 µM (inactive)
GI50 [45]: > 100 µM (inactive)
GI50 [46]: > 100 µM (inactive)
GI50 [47]: > 100 µM (inactive)
GI50 [49]: > 100 µM (inactive)
GI50 [50]: 45.9 µM (inactive)
GI50 [51]: > 100 µM (inactive)
GI50 [52]: > 100 µM (inactive)
GI50 [53]: > 100 µM (inactive)
GI50 [54]: > 100 µM (inactive)
GI50 [55]: > 100 µM (inactive)

O=C1CSC(/C=C/c2ccccc2)N1c1nc2cc3sc(N4C(=O)CSC4/C=C/c4ccccc4)nc3cc2s1 (configuration not stated)
GI50 [57]: 54.2 µM (inactive)
GI50 [1]: > 100 µM (inactive)
GI50 [2]: > 84.5 µM (inactive)
GI50 [3]: 18.3 µM (inactive)
GI50 [4]: > 62.1 µM (inactive)
GI50 [5]: 9.46 µM (inactive)
GI50 [6]: > 86.5 µM (inactive)
GI50 [7]: 9.82 µM (inactive)
GI50 [8]: > 34.1 µM
GI50 [9]: > 87.1 µM (inactive)
GI50 [10]: > 58.7 µM (inactive)
GI50 [12]: 18 µM (inactive)
GI50 [58]: > 54 µM (inactive)
GI50 [59]: > 87.1 µM (inactive)
GI50 [14]: > 74 µM (inactive)
GI50 [15]: 17.1 µM (inactive)
GI50 [60]: > 75.9 µM (inactive)
GI50 [16]: > 41.3 µM (inactive)
GI50 [17]: 65.3 µM (inactive)
GI50 [19]: 42.1 µM (inactive)
GI50 [20]: 53 µM (inactive)
GI50 [21]: 68.1 µM (inactive)
GI50 [22]: > 100 µM (inactive)
GI50 [61]: > 65.6 µM (inactive)
GI50 [23]: 42.4 µM (inactive)
GI50 [24]: 27.7 µM (inactive)
GI50 [27]: 3.53 µM (inactive)
GI50 [62]: > 48.9 µM (inactive)
GI50 [28]: > 100 µM (inactive)
GI50 [29]: 2.83 µM (inactive)
GI50 [63]: > 100 µM (inactive)
GI50 [30]: > 51.5 µM (inactive)
GI50 [31]: > 100 µM (inactive)
GI50 [56]: 14.6 µM (inactive)
GI50 [64]: 62.2 µM (inactive)
GI50 [32]: 37.2 µM (inactive)
GI50 [33]: > 48.3 µM (inactive)
GI50 [65]: 13.5 µM (inactive)
GI50 [34]: 44.6 µM (inactive)
GI50 [35]: 3.66 µM (inactive)
GI50 [36]: 5.9 µM (inactive)
GI50 [37]: > 100 µM (inactive)
GI50 [39]: 3.33 µM (inactive)
GI50 [40]: 43.8 µM (inactive)
GI50 [41]: 48.9 µM (inactive)
GI50 [42]: 13.2 µM (inactive)
GI50 [43]: > 65.6 µM (inactive)
GI50 [44]: > 100 µM (inactive)
GI50 [45]: > 58.9 µM (inactive)
GI50 [66]: > 44.8 µM (inactive)
GI50 [46]: > 46.5 µM (inactive)
GI50 [48]: > 100 µM (inactive)
GI50 [49]: 22 µM (inactive)
GI50 [50]: 73.8 µM (inactive)
GI50 [51]: 6.97 µM (inactive)
GI50 [52]: 33.6 µM (inactive)
GI50 [53]: > 100 µM (inactive)
GI50 [54]: > 100 µM (inactive)
GI50 [55]: 38.8 µM (inactive)

Cc1c2cc[n+](C)cc2c(C)c2c1[nH]c1ccc(OCC(F)(F)F)cc12
GI50 [1]: 2.08 µM (inactive)
GI50 [2]: 0.718 µM (active)
GI50 [3]: 0.164 µM (active)
GI50 [4]: 2.77 µM (inactive)
GI50 [5]: 3.01 µM (inactive)
GI50 [7]: 2.12 µM (inactive)
GI50 [9]: 1.77 µM (inactive)
GI50 [11]: 0.447 µM (active)
GI50 [12]: 4.11 µM (inactive)
GI50 [13]: 1.47 µM (inactive)
GI50 [67]: 3.72 µM (inactive)
GI50 [14]: 0.771 µM (active)
GI50 [15]: 0.375 µM (active)
GI50 [17]: 4.61 µM (inactive)
GI50 [18]: 3.98 µM (inactive)
GI50 [23]: 3.83 µM (inactive)
GI50 [24]: 3.37 µM (inactive)
GI50 [25]: 2.09 µM (inactive)
GI50 [26]: 1.36 µM (inactive)
GI50 [27]: 7.31 µM (inactive)
GI50 [28]: 0.275 µM (active)
GI50 [29]: 1.07 µM (active)
GI50 [31]: 0.467 µM (active)
GI50 [56]: 3.37 µM (inactive)
GI50 [33]: 1.49 µM (inactive)
GI50 [34]: 0.275 µM (active)
GI50 [35]: 0.94 µM (active)
GI50 [36]: 5.12 µM (inactive)
GI50 [37]: 3.08 µM (inactive)
GI50 [38]: 1.49 µM (inactive)
GI50 [39]: 2.25 µM (inactive)
GI50 [40]: 7.14 µM (inactive)
GI50 [41]: 3.41 µM (inactive)
GI50 [44]: 12.2 µM (inactive)
GI50 [45]: 0.38 µM (active)
GI50 [46]: 1.73 µM (inactive)
GI50 [51]: 1.57 µM (inactive)
GI50 [52]: 4.62 µM (inactive)
GI50 [54]: 0.286 µM (active)
GI50 [55]: 4.72 µM (inactive)
